# Measurements published in ChEMBL document CHEMBL3727350, “Agents and methods for treating ischemic and other diseases” (2014).
# Calls of active or inactive are those of the source. The calls are words filed in the database; no cut-off is given here.
# How the values were obtained:
# HEK293 = assay: Effect on Tet-induced Flag-tagged mouse TRPM7 expression in HEK293 cells; assay type: functional, cell-based; conditions: Homo sapiens
# [1] = biological target: Transient receptor potential cation channel subfamily M member 7 (Mus musculus) (UniProt Q923J1); assay: Inhibition of Tet-induced Flag-tagged mouse TRPM7 expressed in HEK293 cells assessed as inhibition of channel-mediated cell death in presence of Mg2+ incubated for 24 to 48 hrs by propidium iodide uptake assay; assay type: cell-based; parameters: concentration or dose not given beside the values
# Sequence of Transient receptor potential cation channel subfamily M member 7 (Mus musculus) (Q923J1 whole entry): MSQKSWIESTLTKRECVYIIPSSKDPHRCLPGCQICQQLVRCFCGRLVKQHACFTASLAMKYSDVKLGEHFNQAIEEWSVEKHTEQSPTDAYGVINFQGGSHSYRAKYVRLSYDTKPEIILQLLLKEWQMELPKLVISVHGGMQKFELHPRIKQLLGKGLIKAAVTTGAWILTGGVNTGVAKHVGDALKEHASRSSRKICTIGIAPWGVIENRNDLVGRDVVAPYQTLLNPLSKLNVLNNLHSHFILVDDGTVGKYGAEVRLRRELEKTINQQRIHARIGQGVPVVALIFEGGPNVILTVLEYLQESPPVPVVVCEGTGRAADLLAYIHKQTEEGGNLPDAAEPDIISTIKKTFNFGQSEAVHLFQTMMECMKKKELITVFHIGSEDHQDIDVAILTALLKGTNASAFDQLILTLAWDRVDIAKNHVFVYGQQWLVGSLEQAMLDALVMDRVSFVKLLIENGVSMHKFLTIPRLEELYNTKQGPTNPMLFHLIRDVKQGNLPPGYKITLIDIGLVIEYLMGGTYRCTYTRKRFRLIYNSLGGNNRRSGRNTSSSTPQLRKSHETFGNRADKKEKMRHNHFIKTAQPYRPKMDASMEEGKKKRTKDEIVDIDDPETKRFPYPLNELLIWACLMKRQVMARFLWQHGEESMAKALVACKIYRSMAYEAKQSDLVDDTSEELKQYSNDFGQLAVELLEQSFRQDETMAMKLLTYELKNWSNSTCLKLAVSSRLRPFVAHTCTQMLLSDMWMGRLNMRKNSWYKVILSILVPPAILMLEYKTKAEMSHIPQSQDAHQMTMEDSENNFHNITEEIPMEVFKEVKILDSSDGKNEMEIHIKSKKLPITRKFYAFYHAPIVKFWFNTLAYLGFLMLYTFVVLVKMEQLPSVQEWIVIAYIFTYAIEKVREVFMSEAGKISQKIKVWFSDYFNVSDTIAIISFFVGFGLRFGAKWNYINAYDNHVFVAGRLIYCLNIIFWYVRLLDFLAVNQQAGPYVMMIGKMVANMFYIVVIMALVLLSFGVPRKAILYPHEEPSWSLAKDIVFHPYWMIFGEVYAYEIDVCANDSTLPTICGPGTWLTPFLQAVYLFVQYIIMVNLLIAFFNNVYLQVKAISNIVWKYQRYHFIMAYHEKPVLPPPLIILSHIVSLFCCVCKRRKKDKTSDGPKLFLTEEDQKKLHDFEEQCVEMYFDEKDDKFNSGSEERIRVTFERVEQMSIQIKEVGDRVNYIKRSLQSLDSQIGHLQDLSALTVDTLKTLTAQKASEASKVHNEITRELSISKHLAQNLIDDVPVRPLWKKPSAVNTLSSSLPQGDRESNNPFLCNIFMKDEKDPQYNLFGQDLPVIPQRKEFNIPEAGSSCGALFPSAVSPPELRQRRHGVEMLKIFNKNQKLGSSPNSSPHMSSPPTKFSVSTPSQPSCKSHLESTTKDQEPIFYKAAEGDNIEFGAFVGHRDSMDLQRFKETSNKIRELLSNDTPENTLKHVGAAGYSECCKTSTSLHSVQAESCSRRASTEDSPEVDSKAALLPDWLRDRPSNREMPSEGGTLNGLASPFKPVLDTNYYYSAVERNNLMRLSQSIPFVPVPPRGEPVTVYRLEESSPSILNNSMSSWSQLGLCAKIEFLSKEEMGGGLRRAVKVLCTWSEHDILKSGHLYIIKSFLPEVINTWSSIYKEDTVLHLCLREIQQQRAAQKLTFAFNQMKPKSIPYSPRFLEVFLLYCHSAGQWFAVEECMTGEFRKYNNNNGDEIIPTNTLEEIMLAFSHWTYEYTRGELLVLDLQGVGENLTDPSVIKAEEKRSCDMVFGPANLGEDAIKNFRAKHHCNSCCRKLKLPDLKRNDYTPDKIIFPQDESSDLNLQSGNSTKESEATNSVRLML
# [2] = biological target: Transient receptor potential cation channel subfamily M member 7 (Mus musculus) (UniProt Q923J1); assay: Inhibition of TRPM7 in mouse primary neuronal cells exposed to oxygen glucose deprivation condition for 1 to 3 hrs assessed as reduction in TRPM7-mediated anoxic cell death dosed before oxygen glucose deprivation condition by propidium iodide uptake assay; conditions: Primary neuron
# [3] = biological target: Transient receptor potential cation channel subfamily M member 7 (Mus musculus) (UniProt Q923J1); assay: Inhibition of TRPM7 in mouse primary neuronal cells exposed to oxygen glucose deprivation condition for 1 to 3 hrs assessed as reduction in TRPM7-mediated anoxic cell death dosed after oxygen glucose deprivation condition by propidium iodide uptake assay; conditions: Primary neuron
# [4] = Inhibition of cell proliferation of human WERI cells at 10 uM incubated for 48 to 96 hrs; assay type: functional
# [5] = biological target: Transient receptor potential cation channel subfamily M member 7 (Rattus norvegicus) (UniProt Q925B3); assay: Inhibition of TRPM7 in rat H9C2 cells assessed as reduction in channel currents at 0.3 to 30 uM by whole cell patch clamp assay; assay type: cell-based
# Sequence of Transient receptor potential cation channel subfamily M member 7 (Rattus norvegicus) (Q925B3 whole entry): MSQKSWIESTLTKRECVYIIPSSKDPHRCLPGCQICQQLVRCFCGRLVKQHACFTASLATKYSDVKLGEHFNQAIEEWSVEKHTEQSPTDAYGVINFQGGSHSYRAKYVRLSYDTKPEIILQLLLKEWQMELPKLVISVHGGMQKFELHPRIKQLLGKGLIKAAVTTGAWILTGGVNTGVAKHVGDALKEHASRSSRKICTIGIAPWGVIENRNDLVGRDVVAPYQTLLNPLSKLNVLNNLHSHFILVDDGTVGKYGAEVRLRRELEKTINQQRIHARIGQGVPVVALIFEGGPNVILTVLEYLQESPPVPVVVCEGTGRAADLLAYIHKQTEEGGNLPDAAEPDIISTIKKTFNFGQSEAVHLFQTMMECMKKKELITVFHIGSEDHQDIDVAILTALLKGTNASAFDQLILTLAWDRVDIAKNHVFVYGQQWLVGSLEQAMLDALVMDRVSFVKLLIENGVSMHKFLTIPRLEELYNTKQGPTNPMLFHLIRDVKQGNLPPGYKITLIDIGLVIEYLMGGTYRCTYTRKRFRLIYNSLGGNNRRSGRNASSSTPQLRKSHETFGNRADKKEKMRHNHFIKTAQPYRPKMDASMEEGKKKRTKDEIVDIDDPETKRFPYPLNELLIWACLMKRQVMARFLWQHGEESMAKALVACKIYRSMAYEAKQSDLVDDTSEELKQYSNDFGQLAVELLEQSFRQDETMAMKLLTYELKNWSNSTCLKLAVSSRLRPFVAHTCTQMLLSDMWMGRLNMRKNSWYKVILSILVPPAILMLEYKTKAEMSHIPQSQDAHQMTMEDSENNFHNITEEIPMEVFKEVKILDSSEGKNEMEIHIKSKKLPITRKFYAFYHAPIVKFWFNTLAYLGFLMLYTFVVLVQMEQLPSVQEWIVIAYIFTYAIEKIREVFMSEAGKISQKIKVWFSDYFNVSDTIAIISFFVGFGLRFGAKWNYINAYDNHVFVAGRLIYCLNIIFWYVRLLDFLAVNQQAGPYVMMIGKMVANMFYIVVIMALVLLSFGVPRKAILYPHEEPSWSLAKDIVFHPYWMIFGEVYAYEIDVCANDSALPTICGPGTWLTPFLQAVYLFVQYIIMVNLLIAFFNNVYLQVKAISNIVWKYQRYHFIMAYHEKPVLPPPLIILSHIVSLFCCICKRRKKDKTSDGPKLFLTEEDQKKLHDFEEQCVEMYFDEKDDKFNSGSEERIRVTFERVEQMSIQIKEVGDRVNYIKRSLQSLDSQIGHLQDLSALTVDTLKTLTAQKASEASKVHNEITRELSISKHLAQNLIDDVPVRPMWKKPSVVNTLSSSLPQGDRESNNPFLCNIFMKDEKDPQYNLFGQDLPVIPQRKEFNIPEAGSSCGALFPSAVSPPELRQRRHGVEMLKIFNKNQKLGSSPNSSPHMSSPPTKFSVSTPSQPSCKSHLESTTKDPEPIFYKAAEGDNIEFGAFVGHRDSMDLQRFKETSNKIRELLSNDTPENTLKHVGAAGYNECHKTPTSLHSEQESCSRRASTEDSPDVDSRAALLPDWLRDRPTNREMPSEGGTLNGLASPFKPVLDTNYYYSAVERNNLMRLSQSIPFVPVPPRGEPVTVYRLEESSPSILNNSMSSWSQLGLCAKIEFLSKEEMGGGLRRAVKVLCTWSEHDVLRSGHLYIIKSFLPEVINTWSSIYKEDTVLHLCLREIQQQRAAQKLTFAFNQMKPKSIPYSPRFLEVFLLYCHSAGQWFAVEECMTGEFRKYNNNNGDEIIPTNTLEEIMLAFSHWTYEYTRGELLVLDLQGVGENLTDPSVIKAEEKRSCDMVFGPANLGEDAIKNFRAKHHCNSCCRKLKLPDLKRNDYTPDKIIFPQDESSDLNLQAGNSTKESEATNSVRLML
# [6] = biological target: Transient receptor potential cation channel subfamily M member 7 (Mus musculus) (UniProt Q923J1); assay: Inhibition of TRPM7 in mouse mouse primary cortical neurons exposed to 2 hrs oxygen glucose deprivation condition assessed as reduction in TRPM7-mediated anoxic cell death measured after 20 hrs by propidium iodide uptake assay; assay type: cell-based; conditions: Cerebral cortex neuron
# [7] = biological target: Transient receptor potential cation channel subfamily M member 7 (Mus musculus) (UniProt Q923J1); assay: Inhibition of Tet-induced Flag-tagged mouse TRPM7 expressed in HEK293 cells assessed as reduction in channel currents at 0.3 to 30 uM by whole cell patch clamp assay; assay type: cell-based
# Mus musculus [8] = organism: Mus musculus; assay: Inhibition of potassium channel in mouse cortical neurons assessed as reduction in potassium currents
# [9] = biological target: Transient receptor potential cation channel subfamily M member 7 (Rattus norvegicus) (UniProt Q925B3); assay: Inhibition of TRPM7 in cultured rat retinal ganglion cells exposed to oxygen glucose deprivation condition for 3 hrs assessed as protection against TRPM7-mediated cell death at by propidium iodide uptake assay; parameters: scale not given: the % may be the effect or the level left
# [10] = biological target: Transient receptor potential cation channel subfamily M member 7 (Rattus norvegicus) (UniProt Q925B3); assay: Inhibition of TRPM7 in rat retinal explants exposed to oxygen glucose deprivation condition for 1 hr assessed as protection against TRPM7-mediated cell death at by propidium iodide uptake assay
# [11] = biological target: Transient receptor potential cation channel subfamily M member 7 (Mus musculus) (UniProt Q923J1); assay: Inhibition of TRPM7 in mouse AML12 cells assessed as protection against oxygen glucose deprivation-induced cell death at 0.5 to 5 uM; assay type: cell-based
# [12] = biological target: Transient receptor potential cation channel subfamily M member 7 (Rattus norvegicus) (UniProt Q925B3); assay: Inhibition of TRPM7 in Sprague-Dawley rat retinal explants dissociated and subjected to 1 hr oxygen-glucose deprivation assessed as reduction in retinal cell death at 1 and 5 uM
# [13] = biological target: Transient receptor potential cation channel subfamily M member 7 (Rattus norvegicus) (UniProt Q925B3); assay: Inhibition of TRPM7 in rat H9C2 cells exposed to oxygen glucose deprivation condition for 1 to 6 hrs assessed as reduction in TRPM7-mediated anoxic cell death in presence of 1 uM nifedipine by propidium iodide uptake assay; assay type: cell-based
# Mus musculus [14] = organism: Mus musculus; assay: Inhibition of sodium channel in mouse cortical neurons assessed as effect on Na+ currents
# Mus musculus [15] = assay: Toxicity in mouse up to 150 uM, iv; assay type: organism-based; conditions: in vivo
# [16] = biological target: Transient receptor potential cation channel subfamily M member 7 (Rattus norvegicus) (UniProt Q925B3); assay: Inhibition of TRPM7 in rat H9c2 cells assessed as protection against oxygen glucose deprivation-induced cell death at 0.05 to 5 uM in presence of 1 uM nifedipine; assay type: cell-based
# Y79 = assay: Inhibition of cell proliferation of human Y79 cells at 10 uM incubated for 48 to 96 hrs; assay type: functional
# [17] = biological target: Transient receptor potential cation channel subfamily M member 7 (Rattus norvegicus) (UniProt Q925B3); assay: Inhibition of TRPM7 in rat H9c2 cells assessed as protection against oxygen glucose deprivation-induced cell death at 0.05 to 5 uM applied during OGD; assay type: cell-based
# MDA-MB-231 = assay: Inhibition of cell proliferation of human MDA-MB-231 cells at 10 uM incubated for 48 to 96 hrs; assay type: functional
# [18] = Inhibition of cell proliferation of mouse B16-F1 cells at 10 uM incubated for 48 to 96 hrs; assay type: functional
# HeLa = assay: Inhibition of cell proliferation of human HeLa cells at 10 uM incubated for 48 to 96 hrs; assay type: functional
# [19] = biological target: Transient receptor potential cation channel subfamily M member 7 (Rattus norvegicus) (UniProt Q925B3); assay: Inhibition of TRPM7 in rat H9c2 cells assessed as protection against oxygen glucose deprivation-induced cell death at 0.05 to 5 uM pre-treated for 24 hrs before OGD; assay type: cell-based
# [20] = biological target: Transient receptor potential cation channel subfamily M member 7 (Rattus norvegicus) (UniProt Q925B3); assay: Inhibition of TRPM7 in rat H9c2 cells assessed as protection against oxygen glucose deprivation-induced cell death at 0.05 to 5 uM pre-treated for 24 hrs before OGD in presence of 1 uM nifedipine; assay type: cell-based
# MCF7 = assay: Inhibition of cell proliferation of human MCF7 cells at 10 uM incubated for 48 to 96 hrs; assay type: functional
# SW13 = assay: Inhibition of cell proliferation of human SW13 cells at 10 uM incubated for 48 to 96 hrs; assay type: functional
# Mus musculus [21] = organism: Mus musculus; assay: Inhibition of calcium channel in mouse cortical neurons assessed as effect on Ca2+ currents; assay type: functional
# [22] = biological target: Transient receptor potential cation channel subfamily M member 7 (Rattus norvegicus) (UniProt Q925B3); assay: Inhibition of TRPM7 in rat H9C2 cells exposed to 6 hrs oxygen glucose deprivation condition followed by 2 hrs recovery assessed as reduction in TRPM7-mediated anoxic cell death at 0.05 to 5 uM by propidium iodide uptake assay; assay type: cell-based
# [23] = biological target: Transient receptor potential cation channel subfamily M member 7 (Rattus norvegicus) (UniProt Q925B3); assay: Inhibition of TRPM7 in Sprague-Dawley rat retinal explants subjected to 1 hr oxygen-glucose deprivation assessed as reduction in retinal ischemia at 5 uM
# [24] = Inhibition of cell proliferation of mouse NIH/3T3 cells at 1.25 to 10 uM incubated for 72 hrs by propidium iodide staining assay; assay type: cell-based; conditions: nih3t3, 72 h
# [25] = Inhibition of cell proliferation of mouse B16F10 cells at 10 uM incubated for 48 to 96 hrs; assay type: functional; conditions: B16-F10
# [26] = biological target: Transient receptor potential cation channel subfamily M member 7 (Mus musculus) (UniProt Q923J1); assay: Inhibition of TRPM7 in mouse mouse primary cortical neurons exposed to 1 hrs oxygen glucose deprivation condition assessed as reduction in TRPM7-mediated anoxic cell death at 1.25 to 10 uM measured after 20 hrs by propidium iodide uptake assay; assay type: cell-based; conditions: Cerebral cortex neuron
# [27] = biological target: Transient receptor potential cation channel subfamily M member 7 (Rattus norvegicus) (UniProt Q925B3); assay: Inhibition of TRPM7 in rat H9c2 cells assessed as protection against oxygen glucose deprivation-induced cell death at 0.05 to 5 uM; assay type: cell-based
smiles,measurement,setting,value
C[n+]1cc2c3c(ccc2c2ccc4cc5c(cc4c21)OCO5)OCO3,Activity,HEK293,inactive
O=C1c2c(O)ccc(O)c2C(=O)c2c(NCCNCCO)ccc(NCCNCCO)c21,Activity,HEK293,inactive
Ic1ccccc1CN[C@@H]1C2CCN(CC2)[C@@H]1C(c1ccccc1)c1ccccc1 (relative stereo),Activity,HEK293,inactive
same,inhibition,[1],Dose-dependent effect
COc1cc2c(cc1OC)-c1c/c(=N\c3c(C)cc(C)cc3C)n(C)c(=O)n1CC2,Activity,HEK293,inactive
same,inhibition,[1],Dose-dependent effect
COc1ccc(OC)c(SCc2nnc(-c3ccc([N+](=O)[O-])c(C)c3)o2)c1,inhibition,[2],Active
same,inhibition,[3],Active
same,inhibition at 10 µM,[4],> 20%
same,inhibition,[1]; concentration not given here,80%
same,inhibition,[5],Active
same,inhibition,[6],Active
same,inhibition,[7],Active
COc1ccccc1N1CCN(CC(O)COc2cccc3ccccc23)CC1 (stereo not drawn),Activity,HEK293,inactive
same,inhibition,[1],Dose-dependent effect
Cc1ccc2c(c1)CCCN2C(=O)c1sc2ccccc2c1Cl,inhibition,Mus musculus [8],Active
same,Activity,[9],66%
same,inhibition,[2],Active
same,inhibition,[10],Active
same,inhibition,[11],Active
same,inhibition,[3],Active
same,inhibition,[12],Active
same,inhibition,[13],Active
same,inhibition,Mus musculus [14],inactive
same,Activity,Mus musculus [15],Non-toxic
same,inhibition,[16],Active
same,inhibition at 10 µM,[4],> 20%
same,inhibition at 10 µM,Y79,> 20%
same,inhibition,[17],Active
same,inhibition at 10 µM,MDA-MB-231,> 20%
same,inhibition at 10 µM,[18],> 20%
same,inhibition at 10 µM,HeLa,> 20%
same,inhibition,[19],Active
same,inhibition,[20],Active
same,inhibition at 10 µM,MCF7,> 20%
same,inhibition at 10 µM,SW13,> 20%
same,inhibition,[1]; concentration not given here,80%
same,inhibition,[5],Active
same,inhibition,Mus musculus [21],inactive
same,inhibition,[22],Active
same,inhibition,[6],Active
same,inhibition,[23],Active
same,Activity,[24],Non-toxic
same,inhibition,[7],Active
same,inhibition at 10 µM,[25],> 20%
same,inhibition,[26],Active
same,inhibition,[27],Active
COc1cccc(OC)c1OCCNCC1CSc2ccccc2O1 (stereo not drawn),Activity,HEK293,inactive
same,inhibition,[1],Dose-dependent effect
CCN(CC)CCCC(C)Nc1c2ccc(Cl)cc2nc2ccc(OC)cc12 (stereo not drawn),Activity,HEK293,inactive
O=C(O)c1cc(=O)cc(C(=O)O)[nH]1,Activity,HEK293,inactive
C[C@H]1O[C@@H](O[C@H]2[C@@H](O)C[C@H](O[C@H]3[C@@H](O)C[C@H](O[C@H]4CC[C@@]5(C)[C@H](CC[C@@H]6[C@@H]5C[C@@H](O)[C@]5(C)[C@@H](C7=CC(=O)OC7)CC[C@]65O)C4)O[C@@H]3C)O[C@@H]2C)C[C@H](O)[C@@H]1O,inhibition,[1],Dose-dependent effect
CSc1nc2c(c(/C=C/c3ccccc3)c1C#N)CCC2,inhibition,[1]; concentration not given here,< 30%
Cc1ccc2c(c1)CCCN2C(=S)Nc1cccc(Cl)c1,inhibition,[1]; concentration not given here,< 30%
OC(CN1CCN(Cc2c(F)cccc2Cl)CC1)Cn1ccc2ccccc21 (stereo not drawn),inhibition,[1]; concentration not given here,50%
Fc1ccc(N2CCN(Cc3c[nH]c(-c4ccccc4)n3)CC2)cc1,inhibition,[1]; concentration not given here,70%
COc1ccccc1N1CCN(Cc2c[nH]c(-c3ccccc3)n2)CC1,inhibition,[1]; concentration not given here,< 30%
CC(=O)CC(O)c1ccncc1 (stereo not drawn),inhibition,[1]; concentration not given here,< 30%
CC(=O)C(C#N)c1nc(-c2ccc(F)cc2)cs1 (stereo not drawn),inhibition,[1]; concentration not given here,70%
Cc1ccc(NS(=O)(=O)c2ccc(-c3cnc(C)s3)s2)c(C)c1,inhibition,[1]; concentration not given here,80%
N#CC1=C(N)Oc2c3c(c4ccccc4c2C1c1ccc(C(F)(F)F)cc1)C(c1ccc(C(F)(F)F)cc1)C(C#N)=C(N)O3 (stereo not drawn),inhibition,[1]; concentration not given here,< 30%
CC(=O)c1ccc(Nc2cc(C)nc3ccccc23)cc1,inhibition,[1]; concentration not given here,< 30%
O=S(=O)(NCc1cccs1)c1ccc(Sc2ncc(C(F)(F)F)cc2Cl)s1,inhibition,[1]; concentration not given here,< 30%
